Test results taken from patent US8119805B2, “Substituted disulfonamide compounds” (Gruenenthal GmbH, priority 2008, dated 2012).
Structures can show the parent of a compound that is named as a salt.

Columns and labels:
[1] = biological target: T1, B1R receptor of the rat (rB1R) (Rattus norvegicus, UniProt P97583); experiment: Functional investigation on the bradykinin 1 receptor (B1R), FLIPR Ca2+ assay, rB1R cells; format: cell-based; details: test substance 10 μM; CHO K1 cells transfected with rat B1R gene; Fluo-4 Ca2+ signal; agonist Des-Arg9-bradykinin at EC80; % of maximum achievable inhibition; read-out: B1R antagonism, rat [10 μM] % inhibition
T1 construct: expressed in transfected cells; host or cells: CHO K1 cells
T1 sequence (P97583 1-337): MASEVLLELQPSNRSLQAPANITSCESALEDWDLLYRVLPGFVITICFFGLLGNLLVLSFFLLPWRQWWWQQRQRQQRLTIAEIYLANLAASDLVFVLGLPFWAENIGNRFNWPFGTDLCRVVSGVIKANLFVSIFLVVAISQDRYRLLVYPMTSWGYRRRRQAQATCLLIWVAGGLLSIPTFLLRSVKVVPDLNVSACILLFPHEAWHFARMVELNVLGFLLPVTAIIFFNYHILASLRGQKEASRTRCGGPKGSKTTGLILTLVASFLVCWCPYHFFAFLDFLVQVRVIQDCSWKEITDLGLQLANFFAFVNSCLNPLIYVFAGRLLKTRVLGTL
Procedure, shortened: (§1)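 CHO K1 cells stably expressing human or rat B1R, Fluo-4 loaded, read by FLIPR (λex 488, λem 540 nm). Test compound (10 μM) first gave % activation against Lys-Des-[MUT]-bradykinin ≥50 nM (hB1R) or Des-[MUT]-bradykinin 10 μM (rB1R). After 10–20 min, agonist at EC80 was added; % inhibition or IC50 from concentration series, n=2–3, N≥2.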

[2] = biological target: T2, human B1R receptor (hB1R) (Homo sapiens, UniProt P46663); experiment: Functional investigation on the bradykinin 1 receptor (B1R), FLIPR Ca2+ assay, hB1R cells; format: cell-based; details: test substance 10 μM; CHO K1 cells transfected with human B1R gene; Fluo-4 Ca2+ signal; agonist Lys-Des-Arg9-bradykinin at EC80; % of maximum achievable inhibition; read-out: B1R antagonism, human [10 μM] % inhibition
T2 construct: expressed in transfected cells; host or cells: CHO K1 cells
T2 sequence (P46663 1-353): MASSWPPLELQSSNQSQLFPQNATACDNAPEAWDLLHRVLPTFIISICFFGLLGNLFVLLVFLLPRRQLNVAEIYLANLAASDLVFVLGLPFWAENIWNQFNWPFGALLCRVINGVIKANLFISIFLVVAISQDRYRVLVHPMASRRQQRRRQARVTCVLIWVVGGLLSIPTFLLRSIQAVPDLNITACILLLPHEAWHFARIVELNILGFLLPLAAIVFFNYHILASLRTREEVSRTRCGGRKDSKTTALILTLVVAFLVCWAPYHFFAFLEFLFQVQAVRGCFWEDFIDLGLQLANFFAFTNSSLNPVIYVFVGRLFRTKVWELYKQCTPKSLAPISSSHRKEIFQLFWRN
Procedure, shortened: as §1

Row | inhibition at 10 µM [1] [%] | inhibition at 10 µM [2] [%] | Structure (SMILES)
1 | 100 | 96 | Cc1ccc(S(=O)(=O)N2CCC[C@H]2CCCS(=O)(=O)N2CCC3(CCN(c4ccncc4)CC3)CC2)c2ccccc12 [Example 75, 3-(3-((S)-1-(4-Methylnaphthalen-1-ylsulfonyl)pyrrolidin-2-yl)propylsulfonyl)-9-(pyridin-4-yl)-3,9-diazaspiro[5.5]undecane]
2 | 104 | 99 | Cc1cccc(Cl)c1S(=O)(=O)N1CCC[C@H]1CCCS(=O)(=O)N1CCC2(CCN(c3ccncc3)C2)C1 (stereo partly drawn) [Example 83, 2-(3-((S)-1-(2-Chloro-6-methylphenylsulfonyl)pyrrolidin-2-yl)propylsulfonyl)-7-(pyridin-4-yl)-2,7-diazaspiro[4.4]nonane]
3 | 78 | 102 | Cc1cc(S(=O)(=O)N2CCC(CCS(=O)(=O)N3CCN(c4ccncc4)CC3)C2)c(C)cc1Cl (stereo not shown) [Example 23, 1-(2-(1-(4-Chloro-2,5-dimethylphenylsulfonyl)pyrrolidin-3-yl)ethylsulfonyl)-4-(pyridin-4-yl)piperazine]
4 | 12 | 58 | O=S(=O)(CCC1CCN(S(=O)(=O)c2cccc(Cl)c2Cl)C1)N1CCC(CCN2CCCC2)CC1 (stereo not shown) [Example 17, 1-(2-(1-(2,3-Dichlorophenylsulfonyl)pyrrolidin-3-yl)ethylsulfonyl)-4-(2-(pyrrolidin-1-yl)ethyl)piperidine hydrochloride]
5 | 97 | 98 | O=S(=O)(CCC[C@@H]1CCCN1S(=O)(=O)c1cccc2ccccc12)N1CCC2(CCN(c3ccncc3)CC2)CC1 [Example 67, 3-(3-((S)-1-(Naphthalen-1-ylsulfonyl)pyrrolidin-2-yl)propylsulfonyl)-9-(pyridin-4-yl)-3,9-diazaspiro[5.5]undecane hydrochloride]
6 | 30 | 58 | CN1CCC(N2CCN(S(=O)(=O)CCCCC3CCCN3S(=O)(=O)c3c(Cl)cc(C(F)(F)F)cc3Cl)CC2)CC1 (stereo not shown) [Example 9, 1-(4-(1-(2,6-Dichloro-4-(trifluoromethyl)phenylsulfonyl)pyrrolidin-2-yl)butylsulfonyl)-4-(1-methylpiperidin-4-yl)piperazine]
7 | 99 | 89 | Cc1cc(F)cc(C)c1S(=O)(=O)N1CCC[C@H]1CCCS(=O)(=O)N1CCC(Oc2ccncc2)CC1 [Example 73, (S)-4-(1-(3-(1-(4-Fluoro-2,6-dimethylphenylsulfonyl)pyrrolidin-2-yl)propylsulfonyl)piperidin-4-yloxy)pyridine]
8 | 96 | 99 | COc1cc(C)c(S(=O)(=O)N2CCC[C@@H]2CCCS(=O)(=O)N2CCN(C3CCN(C)CC3)CC2)c(C)c1 [Example 34, (R)-1-(3-(1-(4-Methoxy-2,6-dimethylphenylsulfonyl)pyrrolidin-2-yl)propylsulfonyl)-4-(1-methylpiperidin-4-yl)piperazine]
9 | 93 | 74 | O=S(=O)(CCC[C@@H]1CCCN1S(=O)(=O)c1ccc(Cl)cc1Cl)N1CCC(Oc2ccncc2)CC1 [Example 51, (S)-4-(1-(3-(1-(2,4-Dichlorophenylsulfonyl)pyrrolidin-2-yl)propylsulfonyl)piperidin-4-yloxy)pyridine]
10 | 93 | 108 | Cc1cccc(Cl)c1S(=O)(=O)N1CCC[C@H]1CCCS(=O)(=O)N1CCN(C2CCN(C)CC2)CC1 [Example 27, (S)-1-(3-(1-(2-Chloro-6-methylphenylsulfonyl)pyrrolidin-2-yl)propylsulfonyl)-4-(1-methylpiperidin-4-yl)piperazine]
11 | 99 | 105 | COc1cc(C)c(S(=O)(=O)N2CCC[C@H]2CCCS(=O)(=O)N2CCN(C3CCN(C)CC3)CC2)c(C)c1 [Example 32, (S)-1-(3-(1-(4-Methoxy-2,6-dimethylphenylsulfonyl)pyrrolidin-2-yl)propylsulfonyl)-4-(1-methylpiperidin-4-yl)piperazine]
12 | 11 | 65 | O=S(=O)(CCC1CCN(S(=O)(=O)c2cc(Cl)c(Cl)cc2Cl)C1)N1CCC(CCN2CCCC2)CC1 (stereo not shown) [Example 18, 4-(2-(Pyrrolidin-1-yl)ethyl)-1-(2-(1-(2,4,5-trichlorophenylsulfonyl)pyrrolidin-3-yl)ethylsulfonyl)piperidine hydrochloride]
13 | 36 | 30 | O=S(=O)(CCC[C@@H]1CCCN1S(=O)(=O)c1ccc2ccccc2c1)N1CCC(Oc2ccncc2)CC1 [Example 49, (S)-4-(1-(3-(1-(Naphthalen-2-ylsulfonyl)pyrrolidin-2-yl)propylsulfonyl)piperidin-4-yloxy)pyridine]
14 | 44 | 61 | Cc1cc(C)c(S(=O)(=O)N2CCCC2CCCCS(=O)(=O)N2CCC(CCN3CCCC3)CC2)c(C)c1 (stereo not shown) [Example 6, 1-(4-(1-(Mesitylsulfonyl)pyrrolidin-2-yl)butylsulfonyl)-4-(2-(pyrrolidin-1-yl)ethyl)piperidine]
15 | 102 | 99 | COc1cc(C)c(S(=O)(=O)N2CCC[C@H]2CCCS(=O)(=O)N2CCC3(CCC(N4CC(F)(F)C4)CC3)CC2)c(C)c1 [Example 63, 9-(3,3-Difluoroazetidin-1-yl)-3-(3-((S)-1-(4-methoxy-2,6-dimethylphenylsulfonyl)pyrrolidin-2-yl)propylsulfonyl)-3-azaspiro[5.5]undecane]
16 | 71 | 58 | O=S(=O)(CCC[C@@H]1CCCN1S(=O)(=O)c1cccc2ccccc12)N1CCC(Oc2ccncc2)CC1 [Example 50, (S)-4-(1-(3-(1-(Naphthalen-1-ylsulfonyl)pyrrolidin-2-yl)propylsulfonyl)piperidin-4-yloxy)pyridine]

Row | Structure (SMILES) | inhibition at 10 µM [1] [%] | inhibition at 10 µM [2] [%]
17 | O=S(=O)(CCC[C@@H]1CCCN1S(=O)(=O)c1cccc2ccccc12)N1[C@@H]2CC[C@H]1C[C@H](Oc1ccncc1)C2 [Example 58, (1R,3R,5S)-8-(3-((S)-1-(Naphthalen-1-ylsulfonyl)pyrrolidin-2-yl)propylsulfonyl)-3-(pyridin-4-yloxy)-8-azabicyclo[3.2.1]octane] | 94 | 56
18 | O=S(=O)(CCC[C@@H]1CCCN1S(=O)(=O)c1cccc(Cl)c1Cl)N1[C@@H]2CC[C@H]1C[C@H](Oc1ccncc1)C2 [Example 60, (1R,3R,5S)-8-(3-((S)-1-(2,3-Dichlorophenylsulfonyl)pyrrolidin-2-yl)propylsulfonyl)-3-(pyridin-4-yloxy)-8-azabicyclo[3.2.1]octane] | 100 | 89
19 | Cc1cc(S(=O)(=O)N2CCC[C@H]2CCCS(=O)(=O)N2[C@@H]3CC[C@H]2C[C@H](Oc2ccncc2)C3)c(C)cc1Cl [Example 61, (1R,3R,5S)-8-(3-((S)-1-(4-Chloro-2,5-dimethylphenylsulfonyl)pyrrolidin-2-yl)propylsulfonyl)-3-(pyridin-4-yloxy)-8-azabicyclo[3.2.1]octane] | 97 | 75
20 | Cc1cccc(Cl)c1S(=O)(=O)N1CCC[C@H]1CCCS(=O)(=O)N1[C@@H]2CC[C@H]1C[C@H](Oc1ccncc1)C2 [Example 55, (1R,3R,5S)-8-(3-((S)-1-(2-Chloro-6-methylphenylsulfonyl)pyrrolidin-2-yl)propylsulfonyl)-3-(pyridin-4-yloxy)-8-azabicyclo[3.2.1]octane] | 98 | 98
